Data reported in PubChem BioAssay (NCI).
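Where inhibition never reached the appropriate level, the endpoint shown equals the highest concentration tested. Otherwise, values were interpolated linearly from a five-concentration, 48-hour dose response in 96-well plates. At the TGI there is no net growth.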

Key:
Test in all cases: NCI tumour cell line growth inhibition, 48 h
NCI-H226 lung = system: NCI-H226 lung
U251 CNS = system: U251 CNS
SW-620 colon = system: SW-620 colon
MOLT-4 leukemia = system: MOLT-4 leukemia
A498 renal = system: A498 renal
HS 578T breast = system: HS 578T breast
T-47D breast = system: T-47D breast
SF-268 CNS = system: SF-268 CNS
NCI-H522 lung = system: NCI-H522 lung
HCC-2998 colon = system: HCC-2998 colon
MDA-MB-231 breast = system: MDA-MB-231 breast
RPMI-8226 leukemia = system: RPMI-8226 leukemia
HCT-15 colon = system: HCT-15 colon
HOP-62 NSCLC = system: HOP-62 NSCLC
MCF7 breast = system: MCF7 breast
BT-549 breast = system: BT-549 breast
EKVX NSCLC = system: EKVX NSCLC
SN12C renal = system: SN12C renal
SK-MEL-2 melanoma = system: SK-MEL-2 melanoma
SF-539 CNS = system: SF-539 CNS
HL-60(TB) leukemia = system: HL-60(TB) leukemia
CCRF-CEM leukemia = system: CCRF-CEM leukemia
ACHN renal = system: ACHN renal
COLO 205 colon = system: COLO 205 colon
SK-OV-3 ovarian = system: SK-OV-3 ovarian
786-0 renal = system: 786-0 renal
PC-3 prostate = system: PC-3 prostate
NCI/ADR-RES ovarian = system: NCI/ADR-RES ovarian
IGROV1 ovarian = system: IGROV1 ovarian
SK-MEL-5 melanoma = system: SK-MEL-5 melanoma
SK-MEL-28 melanoma = system: SK-MEL-28 melanoma
SR leukemia = system: SR leukemia
A549 NSCLC = system: A549 NSCLC
SF-295 CNS = system: SF-295 CNS
NCI-H460 lung = system: NCI-H460 lung
OVCAR-5 ovarian = system: OVCAR-5 ovarian
HT29 colon = system: HT29 colon
UACC-257 melanoma = system: UACC-257 melanoma
HCT-116 colon = system: HCT-116 colon
LOX IMVI melanoma = system: LOX IMVI melanoma
OVCAR-8 ovarian = system: OVCAR-8 ovarian
DU-145 prostate = system: DU-145 prostate
NCI-H23 lung = system: NCI-H23 lung
MDA-N = system: MDA-N
SNB-75 CNS = system: SNB-75 CNS
TK-10 renal = system: TK-10 renal
MDA-MB-435 = system: MDA-MB-435
KM12 colon = system: KM12 colon
K-562 leukemia = system: K-562 leukemia
SNB-19 CNS = system: SNB-19 CNS

Measured: TGI

c1nncn1C12C3C4C5C3C1C5C42 (stereo not given)
> 100 µM: all assays above
